According to US6949564B2, “NPY-5 antagonists” (Pfizer Inc., priority 2002, dated 2005):

Tested on: endogenous NPY response (Y1) of human Bowes melanoma cells (HMCB)
Experiment: Block of endogenous NPY response in host human Bowes melanoma cells
Conditions: at 10 uM; host Bowes melanoma cells with low levels of Y1 responses

NC(N)=NCCC[C@@H](NC(=O)C(c1ccccc1)c1ccccc1)C(=O)NCc1ccc(O)cc1 [BIBP3226]
block of the endogenous NPY response: completely blocks
